Assay results: the NIST ThermoML archive (doi:10.1016/j.jct.2018.02.001)

Experiments:
[1] = 101.33 kPa, Liquid, Vibrating tube method
[2] = mn = molality of the nth substance listed, in mol/kg; settings: 100 kPa, Liquid, Vibrating tube method

CCCCn1cc[n+](CCCC)c1.[Br-] [1,3-dibutylimidazolium bromide]
[1]
Settings	mass density [kg/m3]
293.15 K	1197.07
298.15 K	1193.75
303.15 K	1190.32
308.15 K	1186.85
313.15 K	1183.34
318.15 K	1180.06
323.15 K	1176.52

CCCCn1cc[n+](CCCC)c1.[Br-] [1,3-dibutylimidazolium bromide] + O
mass density [kg/m3], [2]
Settings	m1 = 0.01076	m1 = 0.01516	m1 = 0.02165	m1 = 0.02575	m1 = 0.03042	m1 = 0.0354	m1 = 0.04047
293.15 K	998.64	998.84	999.13	999.32	999.54	999.77	1000
298.15 K	997.46	997.65	997.93	998.11	998.31	998.52	998.74
303.15 K	995.91	996.08	996.4	996.57	996.78	996.98	997.16
308.15 K	994.12	994.3	994.63	994.79	995	995.2	995.35

CCn1cc[n+](CC)c1.[Br-] [1,3-diethyl-1H-imidazolium bromide]
[1]
Settings	mass density [kg/m3]
293.15 K	1355.06
298.15 K	1351.21
303.15 K	1347.51
308.15 K	1343.75
313.15 K	1339.95
318.15 K	1336.13
323.15 K	1332.29

CCn1cc[n+](CC)c1.[Br-] [1,3-diethyl-1H-imidazolium bromide] + O
mass density [kg/m3], [2]
Settings	m1 = 0.01477	m1 = 0.01845	m1 = 0.02167	m1 = 0.0271	m1 = 0.03151	m1 = 0.035	m1 = 0.04375	m1 = 0.04513	m1 = 0.05018
293.15 K	998.92	999.11	999.27	999.55	999.78	999.96	1000.42	1000.49	1000.75
298.15 K	997.72	997.91	998.07	998.35	998.57	998.75	999.19	999.26	999.51
303.15 K	996.18	996.36	996.52	996.8	997.03	997.2	997.63	997.7	997.94
308.15 K	994.23	994.41	994.58	994.87	995.11	995.29	995.71	995.77	995.97

CCCCCCCCCCCC[n+]1ccn(CCCC)c1.[Br-] [1-butyl-3-dodecyl-1H-imidazolium bromide]
[1]
Settings	mass density [kg/m3]
293.15 K	1059.3
298.15 K	1055.99
303.15 K	1052.6
308.15 K	1049.18
313.15 K	1045.73
318.15 K	1042.27
323.15 K	1038.83

CCCCCCCCCCCC[n+]1ccn(CCCC)c1.[Br-] [1-butyl-3-dodecyl-1H-imidazolium bromide] + O
mass density [kg/m3], [2]
Settings	293.15 K	298.15 K	303.15 K
m1 = 0.0055	998.33	997.09	995.65
m1 = 0.0082	998.38	997.13	995.66
m1 = 0.0092	998.4	997.15	995.68
m1 = 0.0149	998.51	997.26	995.7
m1 = 0.0217	998.64	997.39	995.82
m1 = 0.0252	998.71	997.46	995.9
m1 = 0.0317	998.83	997.58	996
m1 = 0.0337	998.87	997.62	996.04
m1 = 0.0399	999	997.74	996.15
m1 = 0.0479	999.15	997.88	996.3
m1 = 0.0503	999.19	997.92	996.34

CCCC[n+]1ccn(CC)c1.[Br-] [1-butyl-3-ethylimidazolium bromide]
[1]
Settings	mass density [kg/m3]
293.15 K	1263.23
298.15 K	1259.4
303.15 K	1255.95
308.15 K	1252.45
313.15 K	1248.92
318.15 K	1245.45
323.15 K	1241.93

CCCCCC[n+]1ccn(CCCC)c1.[Br-] [1-butyl-3-hexyl-1H-imidazolium bromide]
[1]
Settings	mass density [kg/m3]
293.15 K	1148.8
298.15 K	1145.49
303.15 K	1142.11
308.15 K	1138.66
313.15 K	1135.17
318.15 K	1131.7
323.15 K	1128.22

CCCCCC[n+]1ccn(CCCC)c1.[Br-] [1-butyl-3-hexyl-1H-imidazolium bromide] + O
mass density [kg/m3], [2]
Settings	m1 = 0.0051	m1 = 0.0109	m1 = 0.01511	m1 = 0.01999	m1 = 0.02536	m1 = 0.03025	m1 = 0.03503	m1 = 0.03996	m1 = 0.0452	m1 = 0.05
293.15 K	998.4	998.6	998.8	999	999.22	999.42	999.62	999.82	1000.03	1000.23
298.15 K	997.22	997.41	997.6	997.79	998.01	998.2	998.39	998.58	998.79	998.978
303.15 K	995.73	995.88	996.06	996.24	996.44	996.64	996.82	997.01	997.21	997.38
308.15 K	994.04	994.09	994.2	994.38	994.6	994.81	994.99	995.17	995.35	995.51

CCCCCCCC[n+]1ccn(CCCC)c1.[Br-] [1-butyl-3-octyl-1H-imidazolium bromide]
[1]
Settings	mass density [kg/m3]
293.15 K	1123.09
298.15 K	1119.72
303.15 K	1116.27
308.15 K	1112.79
313.15 K	1109.25
318.15 K	1105.74
323.15 K	1102.23

CCCCCCCC[n+]1ccn(CCCC)c1.[Br-] [1-butyl-3-octyl-1H-imidazolium bromide] + O
mass density [kg/m3], [2]
Settings	m1 = 0.0055	m1 = 0.01	m1 = 0.015	m1 = 0.0216	m1 = 0.0285	m1 = 0.0346	m1 = 0.0412	m1 = 0.0498
293.15 K	998.38	998.55	998.75	999.02	999.32	999.58	999.85	1000.22
298.15 K	997.16	997.36	997.53	997.77	998.04	998.28	998.54	998.88
303.15 K	995.68	995.77	995.96	996.2	996.48	996.71	996.97	997.31
308.15 K	994.05	994.08	994.1	994.32	994.61	994.83	995.08	995.4

CCCCCC[n+]1ccn(CC)c1.[Br-] [1-ethyl-3-hexyl-1H-imidazolium bromide]
[1]
Settings	mass density [kg/m3]
293.15 K	1197.06
298.15 K	1193.59
303.15 K	1190.1
308.15 K	1186.58
313.15 K	1183.02
318.15 K	1179.46
323.15 K	1175.88

CCCCCC[n+]1ccn(CC)c1.[Br-] [1-ethyl-3-hexyl-1H-imidazolium bromide] + O
mass density [kg/m3], [2]
Settings	m1 = 0.0092	m1 = 0.012	m1 = 0.0168	m1 = 0.02	m1 = 0.0248	m1 = 0.0295	m1 = 0.0358	m1 = 0.0432	m1 = 0.0495
293.15 K	998.59	998.73	998.92	999.06	999.26	999.47	999.75	1000.07	1000.35
298.15 K	997.35	997.48	997.66	997.79	998	998.2	998.48	998.8	999.08
303.15 K	995.82	995.93	996.11	996.24	996.43	996.64	996.9	997.21	997.48
308.15 K	994.05	994.09	994.21	994.33	994.51	994.7	994.96	995.26	995.51

CCCCCCCC[n+]1ccn(CC)c1.[Br-] [1-ethyl-3-octyl-1H-imidazolium bromide]
[1]
Settings	mass density [kg/m3]
293.15 K	1148.89
298.15 K	1145.43
303.15 K	1141.74
308.15 K	1138.13
313.15 K	1134.69
318.15 K	1131.07
323.15 K	1127.5

CCCCCCCC[n+]1ccn(CC)c1.[Br-] [1-ethyl-3-octyl-1H-imidazolium bromide] + O
mass density [kg/m3], [2]
Settings	293.15 K	298.15 K	303.15 K	308.15 K
m1 = 0.0128	998.68	997.48	995.95	994.18
m1 = 0.0143	998.75	997.55	996.03	994.25
m1 = 0.0149	998.78	997.58	996.06	994.27
m1 = 0.0171	998.87	997.68	996.14	994.36
m1 = 0.0206	999.02	997.83	996.29	994.5
m1 = 0.0216	999.07	997.87	996.33	994.55
m1 = 0.026	999.25	998.06	996.51	994.71
m1 = 0.0313	999.47	998.28	996.73	994.91
m1 = 0.0355	999.65	998.45	996.91	995.08
m1 = 0.0377	999.74	998.54	997	995.16
m1 = 0.0436	999.99	998.77	997.24	995.39

CCCCCCCCCCCC[n+]1ccn(CC)c1.[Br-] [3-dodecyl-1-ethyl-1H-imidazolium bromide]
[1]
Settings	mass density [kg/m3]
293.15 K	1084.31
298.15 K	1080.97
303.15 K	1077.53
308.15 K	1074.03
313.15 K	1070.48
318.15 K	1066.96
323.15 K	1063.43

CCCCCCCCCCCC[n+]1ccn(CC)c1.[Br-] [3-dodecyl-1-ethyl-1H-imidazolium bromide] + O
mass density [kg/m3], [2]
Settings	m1 = 0.0061	m1 = 0.0074	m1 = 0.0109	m1 = 0.015	m1 = 0.021	m1 = 0.0257	m1 = 0.0362	m1 = 0.0521
293.15 K	998.38	998.42	998.52	998.64	998.81	998.94	999.24	999.68
298.15 K	997.16	997.19	997.27	997.38	997.53	997.65	997.91	998.31
303.15 K	995.65	995.68	995.73	995.83	995.99	996.12	996.37	996.72
